Laboratory results from patent publication US9193729B2, “Inhibiting transient receptor potential ion channel TRPA1” (Cubist Pharmaceuticals, Inc., priority 2011, dated 2015).

What was measured:
[1] = system: formalin-induced pain behavior; assay: Formalin-induced pain behavior in vivo rodent model; design: species or system rat; details: i.p. administration, in words
Description: The data shown in Tables 3a, 3b, and 3c and FIG. 2 were obtained by administering a pharmaceutical composition comprising the compound of Formula (Ia) to rodents in the formalin-induced pain duration at various doses according to Example 5. Specifically, the data in Tables 3a, 3b, and 3c and FIG. 2 were obtained by intraperitoneal (i.p.) administration of compositions containing different concentrations of the compound of Formula (Ia), a comparator composition containing recited amounts of the comparator compound (e.g., 150 mg/kg of the comparator compound of Formula (II) in Table 3a) and a control composition containing the vehicle (e.g., without the compound of Formula (Ia) or a comparator compound).
The compound of Formula (Ia) and the comparator compounds of Formula (II) and Formula (III) were tested in the formalin-induced pain test reported by Dubuisson et al., Pain 1977 December; 4(2):161-74 (incorporated herein by reference in its entirety). Dubuisson et al. (1977) describe a method for assessing pain and analgesia in rats and cats. Briefly, dilute formalin (50 μL of 3% formalin) is injected into the plantar surface of the hind paw. […] The individual responsible for counting the pain behaviors in a particular study is blinded to the treatment groups.
Rats were treated with the HCl salt of Compound (Ia) at various doses (3, 10, 30, and 50 mg/kg, IP) or with the vehicle (IP).

[2] = system: female rats; assay: 7-day i.p. repeat dose screening toxicity study; type: in vivo, rat; details: rats, 50 mg/kg/day i.p. for 7 consecutive days
Experimental: The compound of Formula (Ia) was evaluated in a 7-day repeat dose screening toxicity study in female rats. In order to maximize systemic exposure, rats were administered compound of Formula (Ia) i.p. at 50 mg/kg/day for 7 consecutive days, to obtain the results shown in FIG. 6. Clinical chemistry parameters were evaluated on Days 3 and 8. Histopathology was performed on select organs including the liver, kidney, spleen, and lung.

[3] = system: serum biomarkers of hepatotoxicity; assay: Hepatotoxicity serum biomarker study in dogs, oral dose; type: in vivo, dog; details: for ALT level elevation: single PO dose of 50 mg/kg
Experimental: The compound of Formula (Ia) was orally dosed to […] at dose levels of 5, 15 or 50 mg/kg using 30% Sulfobutylether β-cyclodextrin as the vehicle for assessment of safety as measured via serum chemistry biomarkers of hepatotoxicity or bile duct injury FIG. 5A, showing measurements of alanine aminotranferease [ALT], aspartate aminotranferease [AST], alkaline phosphatase [ALP] and gamma-glutamyl transferase [GGT] in the dogs at each dose level (each bar represents a measurement from 1 dog in the study). […] For example, the ALT levels were elevated up to about 60-fold in male dogs and up to about 130-fold in female beagle dogs following a single PO dose of 50 mg/kg.

[4] = molecular target: hERG (Homo sapiens, UniProt Q12809); assay: Patch clamp selectivity, hERG; type: cell-based; details: same procedure as Example 3
Experimental: (§1) Data for TRPA1 inhibition and the selectivity of TRPA1 inhibition was obtained by this method for the compound of Formula (Ia) and included in Table 1 and Table 2. All currents were recorded in whole-cell configuration using EPC-9 and EPC-10 amplifiers and Patchmaster software (HEKA). […] The standard pipette solution consisted of 140 mM CsAsp, 10 mM EGTA, 10 mM HEPES, 2.27 mM MgCl2, 1.91 mM CaCl2, 4 mM MgATP, and 0.1-0.3 mM Na2GTP, with pH adjusted to 7.2 with CsOH. In addition, a solution containing 145 mM CsCl, 10 mM HEPES, 10 mM EGTA and 1 mM MgCl2 (pH 7.2 adjusted with CsOH) can be used. The standard bath solution contained 150 mM NaCl, 10 mM HEPES, 10 mM glucose, 4.5 mM KCl, 1 mM EGTA, 3 mM MgCl2, with pH adjusted to 7.4 with NaOH. In some instances, 2 mM CaCl2 was added in place of EGTA and the concentration of MgCl2 was reduced to 1 mM.
(§2) Data were collected either by continuous recordings at −60 mV or by applying voltage ramps from a holding potential of 0 mV every 4 s. […] Inward and outward currents were analyzed from the ramps at −80 and 80 mV, respectively. […]
(§3) Solutions were switched using a gravity-fed continuous focal perfusion system. […] Temperatures were confirmed using a thermistor (Warner Instruments, TA-29), with temperatures at the recorded cell estimated to be within +/−2° C. of those reported. […]

[5] = molecular target: T1, hTRPV3 (Homo sapiens, UniProt Q8NET8); assay: Patch clamp selectivity, hTRPV3; type: cell-based; details: same procedure as Example 3; species not given; read-out: IC50 in Patch Clamp Assay, TrpV3
T1 sequence (Q8NET8 1-790): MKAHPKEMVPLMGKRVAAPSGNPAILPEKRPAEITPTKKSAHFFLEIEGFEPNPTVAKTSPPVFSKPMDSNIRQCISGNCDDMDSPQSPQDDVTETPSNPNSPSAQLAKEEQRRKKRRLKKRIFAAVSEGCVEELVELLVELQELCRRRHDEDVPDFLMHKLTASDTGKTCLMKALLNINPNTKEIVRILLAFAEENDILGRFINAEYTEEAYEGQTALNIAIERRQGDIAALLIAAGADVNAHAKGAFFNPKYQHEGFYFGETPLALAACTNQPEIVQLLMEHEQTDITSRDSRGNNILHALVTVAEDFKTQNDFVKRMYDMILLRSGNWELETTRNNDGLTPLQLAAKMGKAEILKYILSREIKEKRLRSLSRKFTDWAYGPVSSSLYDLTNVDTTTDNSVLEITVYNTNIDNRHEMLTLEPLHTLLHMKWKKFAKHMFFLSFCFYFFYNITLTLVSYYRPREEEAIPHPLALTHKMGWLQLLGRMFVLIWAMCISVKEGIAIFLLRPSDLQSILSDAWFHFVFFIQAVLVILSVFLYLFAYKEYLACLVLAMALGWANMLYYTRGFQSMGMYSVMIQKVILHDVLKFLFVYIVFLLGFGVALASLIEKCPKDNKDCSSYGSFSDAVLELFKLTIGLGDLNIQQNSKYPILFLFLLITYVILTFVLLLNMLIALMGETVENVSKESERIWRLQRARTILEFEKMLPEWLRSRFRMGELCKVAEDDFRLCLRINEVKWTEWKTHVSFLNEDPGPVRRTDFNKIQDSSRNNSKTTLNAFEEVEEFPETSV
Experimental: as §1, §2, §3

[6] = molecular target: hTRPA1 (Homo sapiens, UniProt O75762); assay: Whole-cell patch clamp inhibition of hTRPA1; type: cell-based; details: same procedure as Example 3; species not given; read-out: IC50 in Patch Clamp Assay, TRPA1
Experimental: as §1, §2, §3

[7] = molecular target: hNav1.2 (Homo sapiens, UniProt Q99250); assay: Patch clamp selectivity, hNav1.2; type: cell-based; details: same procedure as Example 3; species not given; read-out: IC50 in Patch Clamp Assay, NaV1.2
Experimental: as §1, §2, §3

Sequence of hERG (Q12809 whole entry): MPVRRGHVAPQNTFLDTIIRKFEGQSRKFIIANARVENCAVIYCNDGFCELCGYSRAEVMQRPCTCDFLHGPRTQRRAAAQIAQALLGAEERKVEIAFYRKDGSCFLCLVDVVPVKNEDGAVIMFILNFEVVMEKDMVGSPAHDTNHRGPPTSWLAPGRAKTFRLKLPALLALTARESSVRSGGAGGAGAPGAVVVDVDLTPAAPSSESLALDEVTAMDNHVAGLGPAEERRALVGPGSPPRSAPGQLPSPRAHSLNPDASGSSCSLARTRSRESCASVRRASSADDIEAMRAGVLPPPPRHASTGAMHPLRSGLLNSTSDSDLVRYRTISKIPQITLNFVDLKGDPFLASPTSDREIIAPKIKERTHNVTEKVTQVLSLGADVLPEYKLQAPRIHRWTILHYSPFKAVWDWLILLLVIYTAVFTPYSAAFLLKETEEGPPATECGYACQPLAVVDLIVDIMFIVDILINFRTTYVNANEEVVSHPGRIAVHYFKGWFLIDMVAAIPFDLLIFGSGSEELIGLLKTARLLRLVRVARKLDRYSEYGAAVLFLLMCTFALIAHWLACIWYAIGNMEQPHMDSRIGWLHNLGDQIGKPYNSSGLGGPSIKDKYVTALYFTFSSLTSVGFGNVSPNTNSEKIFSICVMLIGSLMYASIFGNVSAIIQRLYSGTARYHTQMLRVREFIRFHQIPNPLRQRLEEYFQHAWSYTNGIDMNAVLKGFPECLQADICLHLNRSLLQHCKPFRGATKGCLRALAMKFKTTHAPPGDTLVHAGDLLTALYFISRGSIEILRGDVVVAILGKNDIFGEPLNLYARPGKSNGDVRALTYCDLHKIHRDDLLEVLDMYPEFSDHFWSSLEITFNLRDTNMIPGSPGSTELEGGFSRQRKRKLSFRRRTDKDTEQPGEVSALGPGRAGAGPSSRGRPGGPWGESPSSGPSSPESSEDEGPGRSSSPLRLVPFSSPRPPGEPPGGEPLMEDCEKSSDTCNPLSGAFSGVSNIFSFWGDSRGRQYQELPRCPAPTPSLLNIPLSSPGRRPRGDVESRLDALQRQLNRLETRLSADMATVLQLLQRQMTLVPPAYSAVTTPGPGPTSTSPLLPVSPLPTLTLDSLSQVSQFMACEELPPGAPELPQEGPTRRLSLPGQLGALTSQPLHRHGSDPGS
Sequence of hTRPA1 (O75762 whole entry): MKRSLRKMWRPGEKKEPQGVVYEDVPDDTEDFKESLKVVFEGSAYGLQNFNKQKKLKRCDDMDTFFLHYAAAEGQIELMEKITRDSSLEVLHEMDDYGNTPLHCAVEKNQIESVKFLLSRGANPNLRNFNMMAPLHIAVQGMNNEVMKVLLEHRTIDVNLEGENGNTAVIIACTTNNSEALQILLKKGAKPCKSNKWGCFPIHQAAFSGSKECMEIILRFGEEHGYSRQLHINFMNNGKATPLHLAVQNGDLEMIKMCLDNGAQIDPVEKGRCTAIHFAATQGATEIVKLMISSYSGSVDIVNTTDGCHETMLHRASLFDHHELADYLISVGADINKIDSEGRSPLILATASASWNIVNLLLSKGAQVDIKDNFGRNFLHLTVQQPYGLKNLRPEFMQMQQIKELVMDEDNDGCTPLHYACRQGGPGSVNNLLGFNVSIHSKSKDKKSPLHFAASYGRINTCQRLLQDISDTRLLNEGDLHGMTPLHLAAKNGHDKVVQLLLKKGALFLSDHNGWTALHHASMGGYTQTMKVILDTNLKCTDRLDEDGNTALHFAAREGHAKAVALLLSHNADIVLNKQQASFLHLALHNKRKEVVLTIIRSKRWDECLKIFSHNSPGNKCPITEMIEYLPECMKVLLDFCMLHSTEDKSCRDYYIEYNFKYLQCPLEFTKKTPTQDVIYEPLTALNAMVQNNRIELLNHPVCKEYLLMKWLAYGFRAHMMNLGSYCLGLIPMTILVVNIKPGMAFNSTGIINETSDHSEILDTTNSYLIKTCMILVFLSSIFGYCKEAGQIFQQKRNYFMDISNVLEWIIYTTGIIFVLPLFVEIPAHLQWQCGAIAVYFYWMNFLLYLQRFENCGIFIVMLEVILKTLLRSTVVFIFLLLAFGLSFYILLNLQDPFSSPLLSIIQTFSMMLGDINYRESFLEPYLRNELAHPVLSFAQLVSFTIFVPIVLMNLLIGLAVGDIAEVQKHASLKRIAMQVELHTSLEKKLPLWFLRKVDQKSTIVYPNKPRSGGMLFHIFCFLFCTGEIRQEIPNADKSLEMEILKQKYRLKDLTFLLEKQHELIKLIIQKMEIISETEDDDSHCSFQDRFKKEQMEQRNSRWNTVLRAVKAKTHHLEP
Sequence of hNav1.2 (Q99250 whole entry): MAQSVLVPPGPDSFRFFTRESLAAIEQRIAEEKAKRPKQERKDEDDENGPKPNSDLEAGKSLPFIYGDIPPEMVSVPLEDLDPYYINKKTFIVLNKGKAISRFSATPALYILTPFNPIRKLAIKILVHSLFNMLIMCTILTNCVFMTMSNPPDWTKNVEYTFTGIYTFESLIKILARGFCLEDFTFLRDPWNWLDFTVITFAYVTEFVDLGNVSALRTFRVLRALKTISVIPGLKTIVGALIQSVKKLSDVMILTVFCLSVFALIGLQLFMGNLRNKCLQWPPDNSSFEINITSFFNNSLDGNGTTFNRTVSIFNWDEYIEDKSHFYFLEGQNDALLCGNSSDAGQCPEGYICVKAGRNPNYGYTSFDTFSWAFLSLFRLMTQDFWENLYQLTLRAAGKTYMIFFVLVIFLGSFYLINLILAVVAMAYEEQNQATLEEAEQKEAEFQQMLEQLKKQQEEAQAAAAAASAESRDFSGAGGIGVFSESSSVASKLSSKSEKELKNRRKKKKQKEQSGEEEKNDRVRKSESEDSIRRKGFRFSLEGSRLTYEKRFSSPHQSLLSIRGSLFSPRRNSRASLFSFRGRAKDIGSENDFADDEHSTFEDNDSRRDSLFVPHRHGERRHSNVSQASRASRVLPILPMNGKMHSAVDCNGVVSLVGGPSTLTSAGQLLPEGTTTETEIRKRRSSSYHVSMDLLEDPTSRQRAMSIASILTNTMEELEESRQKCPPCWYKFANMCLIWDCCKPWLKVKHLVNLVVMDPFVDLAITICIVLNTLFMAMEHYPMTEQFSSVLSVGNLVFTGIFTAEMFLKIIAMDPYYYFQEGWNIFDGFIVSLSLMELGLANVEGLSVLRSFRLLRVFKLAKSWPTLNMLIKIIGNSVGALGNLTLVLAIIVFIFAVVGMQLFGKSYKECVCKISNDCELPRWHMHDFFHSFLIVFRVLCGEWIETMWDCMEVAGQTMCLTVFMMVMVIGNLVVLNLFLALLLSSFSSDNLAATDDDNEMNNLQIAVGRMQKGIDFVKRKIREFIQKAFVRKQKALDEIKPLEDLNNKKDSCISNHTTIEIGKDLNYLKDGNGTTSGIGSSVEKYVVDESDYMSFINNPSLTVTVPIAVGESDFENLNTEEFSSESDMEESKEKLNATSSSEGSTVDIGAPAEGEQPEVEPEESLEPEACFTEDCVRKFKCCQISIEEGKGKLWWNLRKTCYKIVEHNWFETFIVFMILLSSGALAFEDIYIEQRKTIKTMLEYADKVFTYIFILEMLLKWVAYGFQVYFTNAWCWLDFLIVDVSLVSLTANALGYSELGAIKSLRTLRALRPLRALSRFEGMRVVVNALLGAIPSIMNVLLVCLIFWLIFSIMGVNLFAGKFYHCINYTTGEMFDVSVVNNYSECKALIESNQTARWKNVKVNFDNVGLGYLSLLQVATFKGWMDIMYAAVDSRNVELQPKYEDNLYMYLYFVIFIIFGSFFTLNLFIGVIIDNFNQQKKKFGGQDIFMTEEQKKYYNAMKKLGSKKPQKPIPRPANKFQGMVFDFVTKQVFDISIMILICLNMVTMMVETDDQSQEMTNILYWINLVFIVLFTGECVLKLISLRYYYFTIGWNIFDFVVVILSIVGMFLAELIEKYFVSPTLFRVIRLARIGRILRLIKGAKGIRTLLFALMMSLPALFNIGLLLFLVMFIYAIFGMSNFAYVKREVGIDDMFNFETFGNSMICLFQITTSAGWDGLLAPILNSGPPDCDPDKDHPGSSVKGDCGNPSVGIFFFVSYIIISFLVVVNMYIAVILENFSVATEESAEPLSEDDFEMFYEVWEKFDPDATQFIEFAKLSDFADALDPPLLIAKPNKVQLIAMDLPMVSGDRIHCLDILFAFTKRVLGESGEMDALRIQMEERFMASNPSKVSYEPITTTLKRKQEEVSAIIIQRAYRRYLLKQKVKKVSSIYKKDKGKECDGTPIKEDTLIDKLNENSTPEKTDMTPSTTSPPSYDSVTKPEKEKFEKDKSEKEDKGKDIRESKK

| SMILES | duration of pain behavior compared with vehicle [1] | serum biomarkers of hepatotoxicity [2] | serum biomarkers of hepatotoxicity (ALT, AST, ALP, GGT) ([3]; dogs, 50 mg/kg PO) | ALT level elevation ([3]; female beagle dogs) | ALT level elevation ([3]; male dogs) | IC50 [4] [µM] | IC50 [5] [µM] | IC50 [6] [µM] | IC50 [7] [µM] |
| --- | --- | --- | --- | --- | --- | --- | --- | --- | --- |
| CC(C)c1ccc(NC(=O)Cn2cnc3c2c(=O)n(C)c(=O)n3C)cc1 [Formula (II)] | shorter durations of pain behavior than those treated with the vehicle | – | – | – | – | – | – | – | – |
| C[C@H]1CCCN1c1ccc(-c2csc(NC(=O)Cn3cnc4c3c(=O)n(C)c(=O)n4C)n2)cc1F [Formula (III)] | shorter durations of pain behavior than those treated with the vehicle | did elevate serum biomarkers of hepatotoxicity | did elevate serum biomarkers of hepatotoxicity | up to 130 fold | up to 60 fold | – | – | – | – |
| C[C@H]1CCCN1c1ncc(-c2cccc(NC(=O)Cn3cnc4[nH]c(=O)n(C)c(=O)c43)n2)cn1 [Formula (IV), reference compound] | – | – | – | – | – | > 20 | > 10 | 9.8 | > 20 |
